PMC3677620, “Cytotoxicity and In Vitro Antileishmanial Activity of Antimony (V), Bismuth (V), and Tin (IV) Complexes of Lapachol” (Bioinorganic Chemistry and Applications, 2013)
In brackets after ≈: the same amount, converted by molar mass. Several values for one entry are separate records, joined by “and”; a condition that tells them apart may be missing. Equal entries are not always repeated. Where two headings read alike, the source gives them in different places.

Experiments:
[1] = tested on: L. amazonensis; assay: In vitro classic microscopic test, intracellular amastigotes in infected murine peritoneal macrophages; format: cell-based, Leishmania amazonensis (IFLA/BR/1967/PH8); conditions: for IC50, half-maximal inhibitory response (Figure 2): intracellular L. amazonensis, curve of one representative experiment; for IC50: the inhibitory concentration that killed 50% of the L. amazonensis: intracellular amastigotes in Balb/c peritoneal macrophages, 3 days exposure, based on percentage of infected macrophages; for IC50: Leishmania amazonensis, Peritoneal macrophage, 72 h
Protocol: The World Health Organization (WHO) reference strain L. amazonensis (IFLA/BR/1967/PH8) was used and typed as previously described. Promastigote forms were grown at 25°C in M199 medium (Sigma) supplemented with 10% heat-inactivated fetal calf serum (Cultilab), 40 mmol/L HEPES (Amersham), 0.1 mmol/L adenine (Sigma), 0.0005% hemin (Sigma), 0.0002% biotin (Sigma), 50 units/mL penicillin, and […] streptomycin (Invitrogen).
(§1) Animals were kept in the Animal Facility of the Centro de Pesquisas René Rachou/FIOCRUZ in strict accordance to the Guide for the Care and Use of Experimental Animals. The procedures were approved by the Internal Ethics Committee in Animal Experimentation (CEUA) of Fundação Oswaldo Cruz (FIOCRUZ), Brazil (Protocol L-042/08). Mice were euthanized with CO2 in an induction chamber prior to macrophage removal. Balb/c mice were injected intraperitoneally with 2 mL of 3% sodium thioglycollate medium. After 72 h, peritoneal macrophages were removed by washing with cold RPMI 1640 medium and enriched by adherence to round glass coverslips (13 mm) placed in a 4-well culture plate. Cells (2 × 10^5 cells/well) were cultured (37°C, 5% CO2, 18 h) in RPMI supplemented with 10% heat-inactivated FBS (fetal bovine serum) prior to infection with parasites. Macrophages were exposed to stationary phase promastigotes (2 × 10^6/well) at a final ratio of 1 : 10. The plates were incubated at 37°C, 5% CO2, for 5 h in BOD to allow internalization of parasites. Then, the medium was removed for the remaining noninternalized parasites. Negative control included only infected macrophages and medium. Incubations were tested in duplicate in two independent experiments. The substances were serial diluted with RPMI 1640 medium supplemented with 10% FBS at five different concentrations (50 → 3.1 μg/mL). For compounds (3) and (6), the dilution was 10 → 0.016 μg/mL. […] Infected macrophages were exposed daily to the compounds for 3 consecutive days. After this period, coverslips were collected, stained with Panoptic (Laborclin), and subsequently mounted with Entellan (Merck) on glass slides.
The in vitro classic microscopic test enables direct counting to determine the percentage of infected cells and/or the number of amastigotes. Here, the IC50 values were calculated based on the percentage of infected macrophages.

[2] = tested on: HepG2 cells; assay: Cytotoxicity test, MTT method, HepG2 cells; conditions: for MLD50: the minimum lethal dose that killed 50% of the cells, HepG2: MTT, 24 h; for MLD50, the minimum lethal dose (Figure 2): hepatoma HepG2 cell, curve of one representative experiment
Protocol: (§2) Balb/c murine peritoneal macrophages were obtained as described above. Cytotoxicity was determined using the MTT method (3-(4,5-dimethylthiazol-2-yl)-2,5-diphenyl tetrazolium bromide) (Sigma). HepG2 cells were kept in RPMI medium supplemented with 10% FBS, and confluent monolayers were trypsinized, washed in RPMI, and transferred to 96-well microtiter plates (4 × 10^4 cells/well) for 16–18 h. Murine macrophages were used in the concentration 2 × 10^5 cells/well in 96-well microtiter plates. The compounds were serial diluted in different concentrations (10 → 0.16 mg/mL). In both tests, the medium was removed, and the compounds were incubated for 24 h (37°C, 5% CO2). Colorimetric reaction was developed following the incubation with MTT (37°C, 5% CO2, 4 h) and addition of acidified isopropanol. The reaction was read spectrophotometrically (Spectramax M5, Molecular Devices, San Francisco, CA) with a 570 nm filter and a background of 670 nm. Incubations were tested in triplicate in two independent experiments. The minimum dose that killed 50% of the cells (MLD50) was determined, and the values were plotted to generate dose-response curves using Microcal Origin Software (Northampton, MA, USA).

[3] = tested on: murine macrophages; assay: Cytotoxicity test, MTT method, murine peritoneal macrophages; conditions: for MLD50: the minimum lethal dose that killed 50% of the cells, macrophages: murine peritoneal macrophages, MTT, 24 h
Protocol: as §1
as §2, with “The cell lineage HepG2 A16 was derived from a human hepatocellular carcinoma cell line HepG2 (ATCC HB-8065) and obtained from America Type Culture Collection line (ATCC). Balb/c” for “Balb/c”

[4] = tested on: L. amazonensis; parameters: method as in PMID 15654435; conditions: strain MHOM/BR/77/LTB0016 ref 5; cited from earlier work
[5] = tested on: L. braziliensis; parameters: method as in PMID 15654435; conditions: cited from earlier work

| Molecule | IC50, half-maximal inhibitory response (Figure 2) [1] [µg/mL] | IC50: the inhibitory concentration that killed 50% of the L. amazonensis [1] | MLD50: the minimum lethal dose that killed 50% of the cells, HepG2 [2] [µg/mL] | MLD50, the minimum lethal dose (Figure 2) [2] [µg/mL] | MLD50: the minimum lethal dose that killed 50% of the cells, macrophages [3] [µg/mL] | IC50 ([1]; read-out: IC50: the inhibitory concentration that killed 50% of the L. amazonensis, intracellular amastigotes in Balb/c peritoneal macrophages, 3 days exposure, based on percentage of infected macrophages) [µg/mL] | SI: selective index, HepG2 ([2]; MLD50/IC50 ratio, HepG2 cells versus L. amazonensis) | SI: selective index, macrophages ([3]; MLD50/IC50 ratio, murine macrophages versus L. amazonensis) | IC50 against L. amazonensis, previous studies [4] [µg/mL] | IC50 observed for L. braziliensis [5] [µg/mL] | IC50 ([1]; read-out: IC50: the inhibitory concentration that killed 50% of the L. amazonensis) [µg/mL] |
| --- | --- | --- | --- | --- | --- | --- | --- | --- | --- | --- | --- |
| [Cl][Sn]([c]1ccccc1)([c]1ccccc1)[c]1ccccc1 [(6), triphenyltin chloride] | 0.18 | 0.10 ± 0.11 µg/mL | 12.04 ± 8.42 | 18 | 0.73 ± 0.13 | – | – | – | – | – | – |
| CC(C)=CCC1=C(O)C(=O)c2ccccc2C1=O [(7), 2-hydroxy-3-(3′-methyl-2-butenyl)-1,4-naphthoquinone] | – | 15.48 ± 5.23 µg/mL | 201.77 ± 5.32 | – | 184.65 ± 6.58 | > 10 | 13.03 | 11.92 | 5.2 ± 0.70 (≈ 21.5 µM) | 11.9 ± 6.9 | – |
| [Cl][Sb]([Cl])([c]1ccccc1)([c]1ccccc1)[c]1ccccc1 [(5), triphenylantimony dichloride] | – | 11.61 ± 7.85 µg/mL | 157.46 ± 37.13 | – | 30.75 ± 6.01 | – | – | – | – | – | – |
| [Cl][Bi]([Cl])([c]1ccccc1)([c]1ccccc1)[c]1ccccc1 [(4), Triphenylbismuth dichloride] | 5.51 | 5.40 ± 0.16 µg/mL | 183.75 ± 4.77 | 187.1 | 25.15 ± 0.49 | – | – | – | – | – | – |
| (Lp)(Ph3Sn) [(3)] | 0.15 | 0.17 ± 0.03 µg/mL | 12.01 ± 0.17 | 11.9 | 1.6 ± 0.57 | – | – | – | – | – | – |
| (Lp)(Ph3Bi)O0.5 [(1)] | – | – | 58.38 ± 8.47 | – | 32.4 ± 8.20 | – | – | – | – | – | – |
| C[C@@H]1[C@H](O)[C@@H](C)/C=C/C=C/C=C/C=C/C=C/C=C/C=C/[C@H](O[C@@H]2O[C@H](C)[C@@H](O)[C@H](N)[C@@H]2O)C[C@@H]2O[C@](O)(C[C@@H](O)C[C@@H](O)[C@H](O)CC[C@@H](O)C[C@@H](O)CC(=O)O[C@H]1C)C[C@H](O)[C@H]2C(=O)O [Amphotericin B] | – | – | 644.59 ± 126.57 | – | 179.95 ± 8.84 | – | – | – | – | – | 0.73 ± 0.6 (≈ 0.79 µM) |
| (Lp)(Ph3Sb)OH [(2)] | – | > 10 µg/mL and 18.27 ± 5.58 µg/mL | 325.22 ± 89.40 | – | 130.65 ± 40.52 | – | – | – | – | – | – |
